pEC50, pIC50: −log10 of the molar value. Read-outs that look alike come from different tables or passages of the source.

A word on the pEC50: it is −log10 of the EC50, conventionally taken in molar units. For orientation: pIC50 means −log10 of the IC50, conventionally taken in molar units. A high value points to a small IC50.

Assay [1] concerns genotype 1a-H77 subgenomic replicon cell line. Put plainly: HCV Polymerase Replicon Assay, genotype 1a-H77 (luciferase reporter). The assay is classed as cell-based. The note with it: Hepatitis C virus, 72 h, read-out: EC50 1a.
The subject of assay [2] is genotype 1b-Con1 subgenomic replicon cell line. The assay can be described thus: HCV Polymerase Replicon Assay, genotype 1b-Con1 (luciferase reporter). The assay is classed as cell-based. The note with it: Hepatitis C virus, 72 h, read-out: EC50 1b. On the technique in general: A replicon is a self-replicating genome or part of one, used to study replication in cells.
For assay [3], the target named is T1, HCV polymerase 1B (Δ21 NS5B, HCV Strain 1B BK) (Hepatitis C virus genotype 1b, UniProt P26663).
T1 construct: 20 to 50 nM Δ21 NS5B
Put plainly: biochemical. Here is the method:
(§1) Either two-fold serial dilutions (fractional inhibition assay) or a narrower range of dilutions spanning the IC50 of the inhibitor (tight binding assay) of the inhibitors were incubated with 20 mM Tris-Cl pH 7.4, 2 mM MnCl2, 1 mM dithiothreitol, 1 mM ethylene diamine tetraacetic acid (EDTA), 60 to 125 μM GTP and 20 to 50 nM Δ21 NS5B (HCV Strain 1B (BK, Genbank accession number M58335, or H77, Genbank accession number AF011751)) for 15 min at room temperature. The reaction was initiated by the addition of 20 μM CTP, 20 μM ATP, 1 μM ^3H-UTP (10 mCi/umol), 5 nM template RNA and 0.1 U/μl RNase inhibitor (RNasin, Promega), and allowed to proceed for 2 to 4 h at room temperature. Reaction volume was 50 μl. The reaction was terminated by the addition of 1 volume of 4 mM spermine in 10 mM Tris-Cl pH 8.0, 1 mM EDTA. After incubation for at least 15 min at room temperature, the precipitated RNA was captured by filtering through a GF/B filter (Millipore) in a 96 well format. The filter plate was washed three times with 200 μl each of 2 mM spermine, 10 mM Tris-Cl pH 8.0, 1 mM EDTA, and 2 times with ethanol. After air-drying, 30 μl of Microscint 20 scintillation cocktail (Packard) was added to each well, and the retained cpm were determined by scintillation counting. […] Retained cpm were plotted vs. inhibitor concentration and fit to equation 1 using non-linear regression (ref. 1) to obtain the IC50 values: Retained cpm=A[sqrt{(IC50+It−Et)^2+4*IC50*Et}−(IC50+It−Et)]
(§2) Ref. Morrison, J. F. and S. R. Stone. 1985. Approaches to the study and analysis of the inhibition of enzymes by slow- and tight-binding inhibitors. Comments Mol. Cell. Biophys. 2: 347-368.
(§3) The sequence of the template RNA used was: 5′-[…] […] […] […] […] […] […] […] […] […] […] […] […] […] […] […] […]-3′ (SEQ ID NO:1).

In assay [4] the target is T2, HCV polymerase 1A (Δ21 NS5B, H77) (Hepatitis C virus genotype 1a, UniProt P27958).
T2 construct: 20 to 50 nM Δ21 NS5B
Put plainly: biochemical. The procedure: as §1, §2, §3

T1 sequence (P26663 2420-2989, stated change not applied): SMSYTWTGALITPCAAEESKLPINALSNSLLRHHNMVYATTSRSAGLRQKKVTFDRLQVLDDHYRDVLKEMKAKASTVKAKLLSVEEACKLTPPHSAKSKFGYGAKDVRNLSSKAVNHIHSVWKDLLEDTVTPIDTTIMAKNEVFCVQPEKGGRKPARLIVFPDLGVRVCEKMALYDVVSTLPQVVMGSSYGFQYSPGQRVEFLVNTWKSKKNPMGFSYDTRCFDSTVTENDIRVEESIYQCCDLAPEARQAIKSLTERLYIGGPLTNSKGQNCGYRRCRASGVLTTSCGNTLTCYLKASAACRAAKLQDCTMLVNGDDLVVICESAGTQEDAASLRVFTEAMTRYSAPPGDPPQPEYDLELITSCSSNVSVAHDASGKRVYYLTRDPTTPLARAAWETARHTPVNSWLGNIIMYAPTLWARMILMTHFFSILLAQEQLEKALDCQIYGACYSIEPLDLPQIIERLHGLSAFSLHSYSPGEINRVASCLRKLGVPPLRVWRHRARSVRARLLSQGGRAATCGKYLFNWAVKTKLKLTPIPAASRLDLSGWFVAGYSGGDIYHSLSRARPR
T2 sequence (P27958 2421-2990, stated change not applied): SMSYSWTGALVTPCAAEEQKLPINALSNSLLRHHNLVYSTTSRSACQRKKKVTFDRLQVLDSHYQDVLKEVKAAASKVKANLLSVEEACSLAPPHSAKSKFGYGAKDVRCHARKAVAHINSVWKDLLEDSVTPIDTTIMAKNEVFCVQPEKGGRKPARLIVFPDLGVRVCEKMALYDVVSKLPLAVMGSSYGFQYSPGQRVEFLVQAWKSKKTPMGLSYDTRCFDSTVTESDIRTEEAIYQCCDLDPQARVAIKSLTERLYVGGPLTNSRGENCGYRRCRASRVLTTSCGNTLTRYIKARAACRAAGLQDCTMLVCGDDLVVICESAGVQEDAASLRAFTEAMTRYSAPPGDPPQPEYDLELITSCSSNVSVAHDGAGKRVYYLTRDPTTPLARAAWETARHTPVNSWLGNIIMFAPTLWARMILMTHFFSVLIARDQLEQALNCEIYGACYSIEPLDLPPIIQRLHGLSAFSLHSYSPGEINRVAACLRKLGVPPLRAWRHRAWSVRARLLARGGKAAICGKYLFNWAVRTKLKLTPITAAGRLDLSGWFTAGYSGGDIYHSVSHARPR

As for `COc1c(/C=C/c2ccc(NS(C)(=O)=O)cc2CNCCC(C)C)cc(-n2ccc(=O)[nH]c2=O)cc1C(C)(C)C` [IB-L1-1.31, (E)-N-(4-(3-tert-butyl-5-(2,4-dioxo-3,4-dihydropyrimidin-1(2H)-yl)-2-methoxystyryl)-3-((isopentylamino)methyl)phenyl)methanesulfonamide], the pEC50 in assay [1] and in assay [2] was less than 6.00 in each case. Further, the pIC50 is 6.00 to 7.00 in assay [3] and 7.00 to 8.00 in assay [4].
Consider `COc1c(/C=C(\C)c2ccc(NS(C)(=O)=O)cc2)cc(N2CCC(=O)NC2=O)cc1C(C)(C)C` [IA-L1-1.6, (E)-N-(4-(1-(3-tert-butyl-5-(2,4-dioxotetrahydropyrimidin-1(2H)-yl)-2-methoxyphenyl)prop-1-en-2-yl)phenyl)methanesulfonamide], for which the negative-log EC50 (pEC50) in assay [1] and in assay [2] was 7.00 to 8.00 in each case. In addition, the pIC50 in assay [3] was 7.00 to 8.00; in assay [4], greater than 8.00.
Regarding `COc1c(/C=C\c2ccc(NS(C)(=O)=O)cc2)cc(N2CCC(=O)NC2=O)cc1C(C)(C)C` [IA-L1-1.20, (Z)-N-(4-(3-tert-butyl-5-(2,4-dioxotetrahydropyrimidin-1(2H)-yl)-2-methoxystyryl)phenyl)methanesulfonamide], the pEC50 in assay [1] and in assay [2] was 7.00 to 8.00 in each case.
As for `CNC(=O)c1cc(NS(C)(=O)=O)ccc1/C=C/c1cc(-n2ccc(=O)[nH]c2=O)cc(C(C)(C)C)c1OC` [IB-L1-1.17, 2-{(E)-2-[3-tert-butyl-5-(2,4-dioxo-3,4-dihydro-2H-pyrimidin-1-yl)-2-methoxy-phenyl]-vinyl}-5-methanesulfonylamino-N-methyl-benzamide], the pEC50 in assay [1] was 7.00 to 8.00; in assay [2] it was greater than 8.00. The figures for the pIC50 in assay [3] and in assay [4] were 7.00 to 8.00 and greater than 8.00, respectively.
Regarding `COc1c(/C=C/c2ccc(NS(C)(=O)=O)cc2)cc(-n2cc(F)c(=O)[nH]c2=O)cc1C(C)(C)C` [IB-L1-1.2, (E)-N-(4-(3-tert-butyl-5-(5-fluoro-2,4-dioxo-3,4-dihydropyrimidin-1(2H)-yl)-2-methoxystyryl)phenyl)methanesulfonamide], the pEC50 in assay [2] (replicon 1b-Con1, luciferase, three days) was 7.00 to 8.00. The pIC50 in assay [3] and in assay [4] was 7.00 to 8.00 throughout.
Regarding `COc1c(/C=C/c2ccc(NS(C)(=O)=O)cc2COC(C)C)cc(-n2ccc(=O)[nH]c2=O)cc1C(C)(C)C` [IB-L1-1.25, N-(4-{(E)-2-[3-tert-butyl-5-(2,4-dioxo-3,4-dihydro-2H-pyrimidin-1-yl)-2-methoxy-phenyl]-vinyl}-3-isopropoxymethyl-phenyl)-methanesulfonamide], the values for the pEC50 in assay [1] and in assay [2] were 7.00 to 8.00 and greater than 8.00, respectively. Moreover, the pIC50 in assay [3] and in assay [4] was 7.00 to 8.00 each time.
For `COc1c(/C=C/c2ccc(NS(C)(=O)=O)cc2C(=O)N(C)C2CCS(=O)(=O)C2)cc(-n2ccc(=O)[nH]c2=O)cc1C(C)(C)C` (stereo not drawn) [IB-L1-1.18, 2-{(E)-2-[3-tert-butyl-5-(2,4-dioxo-3,4-dihydro-2H-pyrimidin-1-yl)-2-methoxy-phenyl]-vinyl}-N-(1,1-dioxo-tetrahydro-1lambda*6*-thiophen-3-yl)-5-methanesulfonylamino-N-methyl-benzamide], the pEC50 in assay [1] and in assay [2] was 7.00 to 8.00 throughout. For the same molecule, the pIC50 in assay [3] is 7.00 to 8.00; in assay [4], greater than 8.00.
For `COc1c(/C=C/c2ccc(F)cc2)cc(N2CCC(=O)NC2=O)cc1C(C)(C)C` [IA-L1-1.12, (E)-1-(3-tert-butyl-5-(4-fluorostyryl)-4-methoxyphenyl) dihydropyrimidine-2,4(1H,3H)-dione], the pEC50 in assay [1] and in assay [2] was 6.00 to 7.00 throughout. The pIC50 in assay [3] and in assay [4] was 6.00 to 7.00 throughout.
As for `COc1c(/C=C(\C)c2ccc([N+](=O)[O-])cc2)cc(N2CCC(=O)NC2=O)cc1C(C)(C)C` [IA-L1-1.24, 1-{3-tert-butyl-4-methoxy-5-[(E)-2-(4-nitro-phenyl)-propenyl]-phenyl}-dihydro-pyrimidine-2,4-dione], the pEC50 in assay [1] and in assay [2] was less than 6.00 each time. The pIC50 in assay [3] and in assay [4] was less than 6.00 throughout.
In the case of `COc1c(/C=C/c2ccc(NS(C)(=O)=O)cc2C(=O)O)cc(-n2ccc(=O)[nH]c2=O)cc1C(C)(C)C` [IB-L1-1.4, (E)-2-(3-tert-butyl-5-(2,4-dioxo-3,4-dihydropyrimidin-1(2H)-yl)-2-methoxystyryl)-5-(methylsulfonamido)benzoic Acid], the pEC50 in assay [1] was 7.00 to 8.00; in assay [2], greater than 8.00. Further, the pIC50 in assay [3] and in assay [4] was greater than 8.00 in each case.
As for `COc1c(/C=C/c2ccc([N+](=O)[O-])cc2)cc(N2CCC(=O)NC2=O)cc1C(C)(C)C` [IA-L1-1.22, (E)-1-(3-tert-butyl-4-methoxy-5-(4-nitrostyryl)phenyl)dihydropyrimidine-2,4(1H,3H)-dione], the values for the pEC50 in assay [1] and in assay [2] were less than 6.00 and 6.00 to 7.00, respectively. The pIC50 in assay [3] and in assay [4] was 6.00 to 7.00 each time.
With `COc1c(/C=C/c2ccc(NS(C)(=O)=O)cc2)cc(-n2ccc(=O)[nH]c2=O)cc1C(C)(C)C` [IB-L1-1.1, (E)-N-(4-(3-tert-butyl-5-(2,4-dioxo-3,4-dihydropyrimidin-1(2H)-yl)-2-methoxystyryl)phenyl)methanesulfonamide], the pEC50 in assay [1] and in assay [2] was greater than 8.00 each time. Also, the pIC50 in assay [3] and in assay [4] was greater than 8.00 in each case.
`COc1c(/C=C/c2ccc(NS(C)(=O)=O)cc2CN2CCCC2)cc(-n2ccc(=O)[nH]c2=O)cc1C(C)(C)C` [IB-L1-1.33, N-(4-{(E)-2-[3-tert-Butyl-5-(2,4-dioxo-3,4-dihydro-2H-pyrimidin-1-yl)-2-methoxy-phenyl]-vinyl}-3-pyrrolidin-1-ylmethyl-phenyl)-methanesulfonamide]: the pEC50 in assay [1] is 6.00 to 7.00; in assay [2] it was 7.00 to 8.00. Besides, the pIC50 in assay [3] and in assay [4] was 6.00 to 7.00 each time.
With `COc1c(/C=C/c2ccc(NS(C)(=O)=O)cc2-c2ncc[nH]2)cc(-n2ccc(=O)[nH]c2=O)cc1C(C)(C)C` [IB-L1-1.16, (E)-N-(4-(3-tert-butyl-5-(2,4-dioxo-3,4-dihydropyrimidin-1(2H)-yl)-2-methoxystyryl)-3-(1H-imidazol-2-yl)phenyl)methanesulfonamide], the pEC50 is 6.00 to 7.00 in assay [1] and 7.00 to 8.00 in assay [2]. Besides, the pIC50 in assay [3] was 7.00 to 8.00; in assay [4], greater than 8.00.
In the case of `COc1c(/C=C/c2ccc(NS(C)(=O)=O)cc2C(=O)N2CCC2)cc(-n2ccc(=O)[nH]c2=O)cc1C(C)(C)C` [IB-L1-1.22, N-(3-(azetidine-1-carbonyl)-4-{(E)-2-[3-tert-butyl-5-(2,4-dioxo-3,4-dihydro-2H-pyrimidin-1-yl)-2-methoxy-phenyl]-vinyl}-phenyl)-methanesulfonamide], the pEC50 in assay [1] was 7.00 to 8.00; in assay [2] it was greater than 8.00. The pIC50 in assay [3] and in assay [4] was 7.00 to 8.00 each time.
For the molecule `COc1c(/C=C/c2ccc(NS(C)(=O)=O)cc2)cc(-n2ccc(=O)[nH]c2=O)cc1-c1cccnc1` [IB-L1-1.53, (E)-N-(4-(5-(2,4-dioxo-3,4-dihydropyrimidin-1(2H)-yl)-2-methoxy-3-(pyridin-3-yl)styryl)phenyl)methanesulfonamide], the pIC50 in assay [3] and in assay [4] was less than 6.00 throughout.
Turning to `CC(C)(C)c1cc(/C=C/c2ccc([N+](=O)[O-])cc2)cc(N2CCC(=O)NC2=O)c1` [IA-L1-1.25, 1-{3-tert-Butyl-5-[(E)-2-(4-nitro-phenyl)-vinyl]-phenyl}-dihydro-pyrimidine-2,4-dione], the pIC50 in assay [3] and in assay [4] was less than 6.00 each time.
Regarding `COc1c(/C=C/c2ccc(NS(C)(=O)=O)cc2)cc(-n2ccc(=O)[nH]c2=O)cc1-c1ccncc1` [IB-L1-1.55, (E)-N-(4-(5-(2,4-dioxo-3,4-dihydropyrimidin-1(2H)-yl)-2-methoxy-3-(pyridin-4-yl)styryl)phenyl)methanesulfonamide], the pIC50 in assay [3] and in assay [4] was less than 6.00 in each case.

Source of the values: patent publication US8178548B2, “Anti-infective agents and uses thereof” (priority 2007, dated 2012).
